Assay results published in US9205137B2, “Maturation of gastrointestinal tract” (ANARA AB, priority 2010, dated 2015).

How the values were obtained:
suckling 14 d old rats = assay: Exocrine pancreatic function (trypsin activity in pancreatic homogenates), Example 6; format: in vivo, rat; details: 3 d oral gavage, in words (FIG. 10)
Description: Treated groups were compared to control, *p<0.05.
The same rat model as in Experiments 3-5 was used.
The effect of microbial-derived enzymes with pancreatic activity: protease, lipase, amylase and their mixture on exocrine pancreatic secretion after 3 d of oral gavage to suckling 14 d old rats (see experiment 3-5 above). Treated groups were compared to control, *p<0.05

suckling piglets = assay: Suckling pig model II: marker molecules absorption in vivo after microbial protease, Experiment 10; details: protease treated piglets vs control
Procedure: All piglets were kept with sow until the weaning day. Piglets from 5-6 litters divided into 2 groups and treated with microbial protease (Sigma) (enz group) or water (cont) (n=28 per group), total 56. The dose of enzymes was 60 mg/ml with activity 1000 USP per 1 mg, the administration volume was 4 ml/kg b. wt, the frequency of administration was every second day (ones a day). Treatment via gavage feeding was started at 8 d of age and was done 3 times, (i.e. 8, 10, 12 d of life).
Separate piglets (6 enzyme treated and 6 control pigs) were fed with marker molecule solution (Bovine serum albumin (BSA) in concentration 125 mg/ml and sodium fluorescein (NaF) in concentration 2.5 mg/ml; the administration volume was 4 ml/kg b.wt) at age 14 d of life and 27 d of life (the weaning day). Blood was collected at 0, […], 1, 2, 4, 8, and 24 hours after marker-cocktail feeding.

suckling rats [1] = assay: Set I: plasma concentration of marker molecules BSA and BIgG (macromolecule absorption), Example 3; format: in vivo, Rattus norvegicus; details: 3 hours after marker feeding, day 17, in words (FIG. 6)
Description: The plasma level of marker molecules was quantified by using immunoassay rocket electrophoresis and SRI (single radial immunodiffusion) for plasma BSA and BIgG respectively.

suckling rats [2] = assay: Set I: intestinal morphology of distal SI, Example 3; format: in vivo, Rattus norvegicus; details: distal part of SI, in words
Procedure: All samples collected for histology were fixed with Bouin's solution for 24 hours and then stored in 70% ethanol, dehydrated, embedded into the paraffin and then cut into sections with 5 μm thickness. The tissue sections were transferred onto the slides, rehydrated and stained with H&E according to the standard technique. After mounting under cover slips samples were examined using light microscopy to estimate ratio between total length of the villus and length of the adult type enterocytes using ImageJ program.

suckling rats [3] = assay: Set I: body weight, GI and lymphoid organ weights, stomach pH after individual enzymes or mixture, Example 3
Procedure: All experiments were performed in young suckling rats by feeding them from 14 days of age via stomach tube for 3 continuous days (ones a day). One day after last treatment rats were euthanized and plasma and organs proceeded to study structural and functional changes of gastrointestinal system.
The pups were kept with their dam until dissection day (day 17).
In this set suckling pups were divided into five groups; control (water) amylase 10 000 USP/rat/day, lipase 4 000 USP/rat/day, protease 15 000 USP/rat/day, and mixture of these enzyme with corresponding activities per rat and day. This study was evaluating the effects of different pancreatic-like enzymes on the gut maturation and functioning and had 3 individual litters; n=12, n=10 and n=13, totally n=7 pups per each group. Each of the enzymes (Amylase, Protease and Lipase) (Sigma Aldrich) was available in the powder form and was resolved in distilled water prior to stomach feeding during days 14, 15 and 16. The volume of administered enzymes and distilled water (for control groups) was 0.01 ml/g BW. Each time, prior to the feeding procedure, the pups were weighed. […] Then 3 hours later, the pups were sedated with CO2 and anaesthetized by subcutaneous injection with a mixture of ketamine (Ketalar®, Pfizer, New York, USA, NaCl and azaperone (Stresnil®, Janssen Pharmaceutica, Beerse, Belgium), 0.01 ml/g BW. After opening the abdomen of the rats, 1 ml of blood was collected from heart by using syringes containing protease inhibitor and EDTA (50 μl) as anticoagulant and was transferred into ice-chilled tubes. After this, the pancreas was immediately dissected and rinsed with cold 0.9% NaCl, weighted and stored at −70 C. The SI was removed and its length was measured then divided into two halves, proximal and distal. Each segment was flushed out with cold 0.9% NaCl to clean the lumen and was then weighed separately. […] The stomach was removed and its content was collected into the tube (for measuring its pH) and frozen. Then cecum was dissected out, opened, rinse and weighed as well as liver and lymphoid organs spleen and thymus were dissected and weighted.
The contents of the stomach were de-frozen and then resolved with 1 ml of cold 0.9% NaCl. After resolving, they were centrifuged and the pH was measured in the supernatant using pH-meter.
All data are presented as mean±standard deviation (SD). Statistical comparisons between each group and control group were performed using the t-test. Results were considered as significant when P<0.05.

suckling rats [4] = assay: Papain vs microbial protease: body and organ weight, Example 8; format: in vivo, Rattus norvegicus
Description: (§1) The litter size for each dam was limited to 12 or 13 pups, to reduce variability.
(§2) Suckling pups were divided into 3 groups depending on the treatments; microbial protease as a positive control, water as negative control and enzyme from papaya fruit (papain) (in total; protease=7, papain=8, control=7). The enzymes are available in the market in form of powders and were resolved in distilled water prior to stomach feeding during 14-16 d of age. The administered dose for each enzyme was 10000 USP/animal. The volume of administered enzymes and water (for control groups) was 0.01 ml/g b.wt. Prior to the feeding procedure, the pups were weighed. […] Three hours later, the pups were anaesthetized and organs were dissected out for analyses.

rat pups = assay: Set III: health and growth monitored for 3 weeks after protease, early and normal weaning, Example 5; format: in vivo; details: protease 15 000 USP
Description: In the last study, the health and the growth of the pups were monitored for 3 weeks. Pups where treated at age 14 day of life with the protease 15 000 USP/rat/day for 3 days once a day (on days 14, 15, and 16). This study performed using 3 litters (n=9, n=11 and n=10) where pups were divided into 2 groups; enzyme treated and control. After last feeding rat were further divided into subgroups: early weaning started on day 17 (n=8) and normal weaning started on day 21 (n=6). All animals were monitored via weighing for one week on a daily basis and then once a week for the next 2 weeks.

suckling rats [5] = assay: Set I: brush-border disaccharidase activity in proximal SI, Example 3; format: in vivo, Rattus norvegicus; details: proximal part of SI, in words (FIG. 5)
Procedure: The proximal samples of the SI were de-frozen and weighted and then homogenized with 9 parts of 0.9% NaCl (9 w/v). The homogenates (50 μl diluted samples) were incubated with the appropriate disaccharide (50 μl of 0.056M sucrose, maltose and lactose) for 1 hour at 37° C. After this, the liberated glucose was determined by adding glucose oxidase reagent (Sigma Chemicals), and incubated for 30 minutes. Then samples were transferred into the 96-well plate in triplication and the absorbance was measured at 450 nm. To measure the protein contents of the homogenates, Lowry method, was used, where BSA (Bovine Serum Albumin) was used as a standard. The results are presented as specific activity units per mg of protein (u/mg).

suckling rats [6] = assay: Papain vs microbial protease: macromolecule absorption (BSA, BIgG in plasma), Example 8; format: in vivo, Rattus norvegicus; details: day 17, 3 hours after feeding, in words (FIG. 14)
Description: as §1, §2

suckling rats [7] = assay: Papain vs microbial protease: intestinal disaccharidase activity in proximal SI, Example 8; format: in vivo, Rattus norvegicus; details: proximal part of SI, in words (FIG. 13)
Description: as §1, §2
The activities of the brush-border enzymes lactase, maltase and sucrase were analyzed in the proximal part of the SI in groups treated with papain and protease.

[8] = 10000 USP/animal, days 14-16, day 17

With “Proteinase from Aspergillus melleus [Protease]” as the substance, how does the “stimulation of the pancreatic function” value (suckling 14 d old rats) read?
The value was “most efficient enzyme for stimulation of the pancreatic function”.

What about the “intestinal permeability for BSA” value (suckling piglets; in words (FIG. 20A)) of the same substance?
Its value is “decreased intestinal permeability”.

And the “intestinal permeability for NaF” value (suckling piglets; in words (FIG. 20B))?
The value was “decreased intestinal permeability”.

And the “uptake of marker molecule BIgG to plasma” value (suckling rats [1])?
Its value is “significantly lower”.

What about the “uptake of marker molecule BSA to plasma” value (suckling rats [1]) of the same substance?
The value was “significantly lower”.

What about the “replacement of vacuolated enterocytes by adult type enterocytes” value (suckling rats [2]) of the same substance?
Its value is “all of the vacuolated enterocytes were replaced with adult type enterocytes”.

And the Body weight (suckling rats [3]; 3 days treatment, day 17)?
The Body weight was 33.6 ± 1.9 gr.

What about the Cecum (suckling rats [3]; 3 days treatment, day 17) of the same substance?
Its Cecum is 4.0 ± 0.5 mg/g BW.

What about the “Distal SI” value (suckling rats [3]; 3 days treatment, day 17) of the same substance?
Its value is 17.8 ± 2.5 mg/g BW.

What about the Liver (suckling rats [3]; 3 days treatment, day 17) of the same substance?
Its Liver is 35.8 ± 2.5 mg/g BW.

And the Pancreas (suckling rats [3]; 3 days treatment, day 17)?
The Pancreas was 4.3 ± 0.4 mg/g BW.

What about the “Proximal SI” value (suckling rats [3]; 3 days treatment, day 17) of the same substance?
The value was 24.7 ± 3.5 mg/g BW.

And the SI length (suckling rats [3]; 3 days treatment, day 17)?
Its SI length is 1.7 ± 0.1 cm/g BW.

What about the Spleen (suckling rats [3]; 3 days treatment, day 17) of the same substance?
The Spleen was 3.4 ± 0.5 mg/g BW.

What about the Stomach (suckling rats [3]; 3 days treatment, day 17) of the same substance?
The Stomach was 7.2 ± 0.7 mg/g BW.

What about the Thymus (suckling rats [3]; 3 days treatment, day 17) of the same substance?
Its Thymus is 3.96 ± 0.4 mg/g BW.

What about the diarrhoea (suckling rats [3]; after receiving the first dose) of the same substance?
The diarrhoea was “diarrhoea observed after receiving the first dose”.

And the pH (suckling rats [3]; stomach contents, day 17)?
The pH was 3.5 ± 0.3.

And the Body weight (suckling rats [4]; [8])?
Its Body weight is 34.8 ± 3.31 gr.

And the Cecum (suckling rats [4]; [8])?
The Cecum was 2.89 ± 0.47 mg/g BW.

What about the “Distal SI” value (suckling rats [4]; [8]) of the same substance?
The value was 15.2 ± 2.3 mg/g BW.

And the Liver (suckling rats [4]; [8])?
Its Liver is 32.22 ± 1.37 mg/g BW.

And the Pncrease (suckling rats [4]; [8])?
The Pncrease was 3.87 ± 0.34 mg/g BW.

And the “Proxima SI” value (suckling rats [4]; [8])?
The value was 20.24 ± 2.37 mg/g BW.

And the SI length (suckling rats [4]; [8])?
The SI length was 1.59 ± 0.18 cm/g BW.

What about the Spleen (suckling rats [4]; [8]) of the same substance?
The Spleen was 3.18 ± 0.23 mg/g BW.

What about the Stomach (suckling rats [4]; [8]) of the same substance?
Its Stomach is 6.71 ± 0.41 mg/g BW.

What about the Thymus (suckling rats [4]; [8]) of the same substance?
The Thymus was 4.95 ± 0.93 mg/g BW.

What about the “effect on body growth” value (suckling rats [4]; dose 10 000 USP, days 14 to 17, in words (FIG. 12)) of the same substance?
The value was “No effect”.

What about the diarrhea (rat pups; after first treatment) of the same substance?
The diarrhea was “signs of diarrhea”.

And the “growth in comparison to control group” value (rat pups; in words (FIG. 9))?
The value was “decrease in growth after first treatment”.

And the “effect of early weaning on treated group” value (rat pups; weaning day 17, in words)?
Its value is “no disadvantage”.

What about the lactase activity (suckling rats [5]) of the same substance?
Its lactase activity is “decreased”.

And the maltase activity (suckling rats [5])?
The maltase activity was “significantly increased”.

What about the sucrase activity (suckling rats [5]) of the same substance?
The sucrase activity was “significantly increased”.

And the “uptake of macromolecules, BIgG absorption” value (suckling rats [6])?
The value was “significantly lower”.

And the “activity of maltase compared to control” value (suckling rats [7])?
The value was “significantly increased”.

And the “activity of sucrase compared to control” value (suckling rats [7])?
Its value is “significantly increased”.
